# Experimental data published in patent US6080772A, “Thiazole compounds and methods of modulating signal transduction” (Sugen, Inc., priority 1997, dated 2000).
# Several values for one entry are separate records, joined by “and”; a condition that tells them apart may be missing. Equal values may be shown once. Read-outs that look alike come from different tables or passages of the source.
# Tests used:
# primary adipocytes = test: Primary adipocyte glucose uptake assay (14C glucose); details: test compound 50 mM without insulin, compared to samples containing only insulin (final concentration=100 μm)
# insulin receptor (IR) = test: Phosphotyrosine enzyme linked immunosorbent assay: pTyr on insulin receptor in NIH3T3 cells over-expressing human IR (H25 cells); details: for EC50: read-out: ACTIVITY EC50; for ACTIVITY (compared to control) / CONC.: Table I; for CONC.: concentration of the compound which produces the percentage increase in phosphotyrosine over the vanadate control, 90 min incubation, no insulin
Structure (SMILES),response in the primary adipocyte glucose uptake assay compared with the insulin control (primary adipocytes),"EC50 (insulin receptor (IR); Table III, […]) [µM]",also measured
"O=[N+]([O-])c1cnc(Sc2nc3cc4c(cc3[nH]2)OCCO4)s1 [Compound 90, 7-[(5-Nitrothiazol-2-yl)mercapto]-benzimidazo[5,6-b]1,4-dioxane]",did not give a response greater than or equal to the insulin control,,
"Cn1ccnc1Sc1ncc([N+](=O)[O-])s1 [Compound 13, 1-Methyl-2-[(5-nitrothiazol-2-yl)mercapto]imidazole]",did not give a response greater than or equal to the insulin control,,"EC50 (insulin receptor (IR); Table II, LOT 1): 13 µM; EC50 (insulin receptor (IR); Table II, LOT 2): 14 µM"
"CC(C)n1c(Sc2ncc([N+](=O)[O-])s2)nc2cc(Cl)ccc21 [Compound 96(a), 5-Chloro-1-isopropyl-2-[(5-nitrothiazol-2-l)mercapto]benzimidazole]",did not give a response greater than or equal to the insulin control,,
"O=[N+]([O-])c1cnc(Sc2nnc(O)n2-c2ccccc2C(F)(F)F)s1 [Compound 8, 3-hydroxy-5-[(5-nitrothiazol-2-yl)mercapto]-4-[2-(trifluoromethyl)phenyl]-1,2,4-triazole]",did not give a response greater than or equal to the insulin control,,ACTIVITY (compared to control) (insulin receptor (IR); […]): 30%; CONC. (insulin receptor (IR)): 24 µM
O=[N+]([O-])c1cnc(Sc2nnc(O)n2Cc2ccccc2)s1 [Compound 7],did not give a response greater than or equal to the insulin control,,"CONC. (insulin receptor (IR)): 200 µM and 100 µM; EC50 (insulin receptor (IR); Table II, […], no lot stated): 13 µM"
"CC(C)n1c(Sc2ncc([N+](=O)[O-])s2)nc2cc(C(F)(F)F)ccc21 [Compound 95, 1-Isopropyl-2-[(5-nitrothiazol-2-yl)mercapto]-5-(trifluoromethyl)benzimidazole]",did not give a response greater than or equal to the insulin control,,"EC50 (insulin receptor (IR); Table II, […], no lot stated): > 100 µM"
"O=[N+]([O-])c1cnc(Sc2nc(-c3ccc(Cl)cc3)n[nH]2)s1 [Compound 4, 3-(4-chlorophenyl)-5-[(5-nitrothiazol-2-yl)mercapto]-1,2,4-triazole]",did not give a response greater than or equal to the insulin control,,"ACTIVITY (compared to control) (insulin receptor (IR); […]): 30%; CONC. (insulin receptor (IR)): 100 µM; EC50 (insulin receptor (IR); Table II, […], no lot stated): 15 to 49 µM"
Cn1c(O)nnc1Sc1ncc([N+](=O)[O-])s1 [Compound 99],did not give a response greater than or equal to the insulin control,,"one point determination, effect on PTYR (insulin receptor (IR); Table II, at 100 μm): no effect"
"O=[N+]([O-])c1cnc(Sc2nnnn2-c2ccccc2)s1 [Compound 91, 5-[(5-Nitrothiazol-2-yl)mercapto]-1-phenyltetrazole]",did not give a response greater than or equal to the insulin control,,
"C#CCSc1nnc(Sc2ncc([N+](=O)[O-])s2)s1 [Compound 92, 2-[(5-Nitrothiazol-2-yl)mercapto]-5-propargylmercapto-1,3,4-thiadiazole]",did not give a response greater than or equal to the insulin control,,
Cc1ccsc1/C=C/c1ccnc(Sc2ncc([N+](=O)[O-])s2)n1 [Compound 98],did not give a response greater than or equal to the insulin control,,
"O=[N+]([O-])c1cnc(Sc2ncc[nH]2)s1 [Compound 87, 2-[(5-Nitrothiazol-2-yl)mercapto]imidazole]",did not give a response greater than or equal to the insulin control,,
"O=C(O)Cn1nnnc1Sc1ncc([N+](=O)[O-])s1 [Compound 58, 1-Carboxymethyl-5-[(5-nitrothiazol-2-yl)mercapto]tetrazole]",,40,
"O=[N+]([O-])c1cnc(Sc2nc3ccc(S(=O)(=O)O)cc3[nH]2)s1 [Compound 51, 2-[(5-nitrothiazol-2-yl)mercapto]-5-sulfobenzimidazole]",,10.3,
"Cc1ccc(Nc2nnc(Sc3ncc([N+](=O)[O-])s3)s2)c(C)c1 [Compound 71, 2-(2,4-Dimethylphenylamino)-5-[(5-nitrothiazol-2-yl)mercapto]-1,3,4-thiadiazole]",,24,
"CCOC(=O)c1nc(Sc2ncc([N+](=O)[O-])s2)[nH]c1C(=O)OCC [Compound 48, 4,5-Di(ethoxycarbonyl)-2-[(5-nitrothiazol-2-yl)mercapto]imidazole]",,> 100,
"O=[N+]([O-])c1cnc(Sc2nc3c([nH]2)CC(Cl)C(Cl)C3)s1 (centres unmarked) [Compound 39, 5,6-Dichloro-2-[(5-nitrothiazol-2-yl)mercapto]cyclohexoimidazole]",,17.5,
"O=[N+]([O-])c1cnc(Sc2nnc(Sc3nnc(Sc4cc(O)ccc4O)s3)s2)s1 [Compound 27, 2-(2,5-Dihydroxyphenylmercapto)-5-[[2-[(5-nitrothiazol-2-yl)mercapto]-1,3,4-thiadiazol-5-yl]mercapto]-1,3,4-thiadiazole]",,96,
"O=[N+]([O-])c1cnc(Sc2nnc(SCc3cccc(C(F)(F)F)c3)s2)s1 [Compound 63, 2-[(5-Nitrothiazol-2-yl)mercapto]-5-[3-(trifluoromethyl)benzylmercapto]-1,3,4-thiadiazole]",,75,
"COC(=O)c1cnc(Sc2ncc([N+](=O)[O-])s2)n1C [Compound 42, 4-Methoxycarbonyl-3-methyl-2-[(5-nitrothiazol-2-yl)mercapto]imidazole]",,14,

Structure (SMILES),response in the primary adipocyte glucose uptake assay compared with the insulin control (primary adipocytes),"EC50 (insulin receptor (IR); Table III, […]) [µM]",also measured
"O=[N+]([O-])c1cnc(Sc2nnnn2-c2ccc(O)cc2)s1 [Compound 55, 1-(4-Hydroxyphenyl)-5-[(5-nitrothiazol-2-yl)mercapto]tetrazole]",,41,
"NS(=O)(=O)c1ccc(-n2nnnc2Sc2ncc([N+](=O)[O-])s2)cc1 [Compound 33, 1-(4-Aminosulfonylphenyl)-5-[(5-nitrothiazol-2-yl)mercapto]tetrazole]",,> 100,
"Cn1nnnc1Sc1ncc([N+](=O)[O-])s1 [Compound 56, 1-Methyl-5-[(5-nitrothiazol-2-yl)mercapto]tetrazole]",,27,
"CCCCCC(=O)Nc1ccc(-n2nnnc2Sc2ncc([N+](=O)[O-])s2)cc1 [Compound 89, 1-[4-(n-Hexanoylamino)phenyl]-5-[(5-nitrothiazol-2-yl)mercapto]tetrazole]",did not give a response greater than or equal to the insulin control,,
"Nc1nnc(Sc2ncc([N+](=O)[O-])s2)s1 [Compound 59, 2-Amino-5-[(5-nitrothiazol-2-yl)mercapto]-1,3,4-thiadiazole]",,> 100,
"O=[N+]([O-])c1cnc(Sc2nnnn2-c2cccc(O)c2)s1 [Compound 88, 1-(3-Hydroxyphenyl)-5-[(5-nitrothiazol-2-yl)mercapto]tetrazole]",did not give a response greater than or equal to the insulin control,,
"CCNC(=O)n1c(Sc2ncc([N+](=O)[O-])s2)nc2cc([N+](=O)[O-])ccc21 [Compound 18, 1-Ethylaminocarbonyl-5-nitro-2-[(5-nitrothiazol-2-yl)mercapto]benzimidazole]",,,EC50 (insulin receptor (IR)): 16 µM
"O=[N+]([O-])c1cnc(Sc2nc3cc(C(F)(F)F)cc(Br)c3[nH]2)s1 [Compound 40, 4-Bromo-2-[(5-nitrothiazol-2-yl)mercapto]-6-(trifluoromethyl)benzimidazole]",,8.6,
O=[N+]([O-])c1cnc(Sc2nnc(NC3CCCCC3)s2)s1 [Compound 75],,> 100,"increase in PTYR (insulin receptor (IR); Table III, 100, 50 and 25 μM): 47%"
"CCn1nnnc1Sc1ncc([N+](=O)[O-])s1 [Compound 34, 1-Ethyl-5-[(5-nitrothiazol-2-yl)mercapto]tetrazole]",,33,
"Cc1cc(C)c(Nc2nnc(Sc3ncc([N+](=O)[O-])s3)s2)c(C)c1 [Compound 72, 2-[(5-Nitrothiazol-2-yl)mercapto]-5-(2,4,6-trimethylphenylamino)-1,3,4-thiadiazole]",,20,
"COc1ccc2nc(Sc3ncc([N+](=O)[O-])s3)[nH]c2c1 [Compound 45, 5-Methoxy-2-[(5-nitrothiazol-2-yl)mercapto]benzimidazole]",,,"increase in PTYR (insulin receptor (IR); Table III, at 100 μM): 46%"
"Cc1ccc(Nc2nnc(Sc3ncc([N+](=O)[O-])s3)s2)cc1 [Compound 69, 2-(4-Methylphenylamino)-5-[(5-nitrothiazol-2-yl)mercapto]-1,3,4-thiadiazole]",,> 100,
O=[N+]([O-])c1cnc(Sc2nc3ncccc3[nH]2)s1 [Compound 20],,15,
"CC(C)n1c(Sc2ncc([N+](=O)[O-])s2)nc2cc(Cl)ccc21 [Compound 52, 5-Chloro-1-isopropyl-2-[(5-nitrothiazol-2-yl)mercapto]benzimidazole]",,> 50,
"CC(=O)Nc1ccc(-n2nnnc2Sc2ncc([N+](=O)[O-])s2)cc1 [Compound 31, 1-(4-Acetamidophenyl)-5-[(5-nitrothiazol-2-yl)mercapto]tetrazole]",,> 100,"increase (PTYR) (insulin receptor (IR); Table III, at 50 μM): 49%"
O=[N+]([O-])c1cnc(Sc2nc(O)c3nc(O)[nH]c3n2)s1 [Compound 37],,> 100,
"Cc1cc(C)c(Nc2nnc(Sc3ncc([N+](=O)[O-])s3)s2)cc1C [Compound 74, 2-[(5-Nitrothiazol-2-yl)mercapto]-5(2,4,5-trimethylphenylamino)-1,3,4-thiadiazole]",,> 100,
"CCn1nnnc1Sc1ncc([N+](=O)[O-])s1 [Compound 57, 1-Ethyl-5-[(5-nitrothiazol-2-yl)mercapto]tetrazole]",,81,
"O=[N+]([O-])c1ccc(-c2nnc(Sc3ncc([N+](=O)[O-])s3)[nH]2)o1 [Compound 78, 2-(2-Nitrofuran-5-yl)-5-[(5-nitrothiazol-2-yl)mercapto]-1,2,4-triazole]",,,EC50 (insulin receptor (IR)): 36 µM
